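A five-concentration, 48-hour dose response in 96-well plates underlies each endpoint, interpolated linearly between surrounding concentrations. Abbreviation: GI50, concentration required for 50% inhibition of growth.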 Active and inactive are the calls of the source. Rule as the data show it: active = GI50 up to about 1.1 µM and inactive = higher.

Assay in all cases: NCI tumour cell line growth inhibition, 48 h
The subject of assay [1] is ACHN.
Assay [2] relates to HCC 2998.
Assay [3] deals with HCT-116.
The subject of assay [4] is HCT-15.
Assay [5] concerns HOP-92.
The subject of assay [6] is HT-29.
The subject of assay [7] is MDA-MB-435.
Assay [8] has as its system NCI-H460.
For assay [9], the system named is RXF 393.
Assay [10] relates to SF-268.
Assay [11] deals with SF-295.
Assay [12] relates to SF-539.
Assay [13] concerns SN12C.
For assay [14], the system named is T47D.
Assay [15] has as its system UACC-257.

`Cc1sc(N)c(S(=O)(=O)c2ccccc2)c1C`: the GI50 in [1] was > 100 µM (inactive); in [2], > 100 µM (inactive); in assay [3] it was > 100 µM (inactive); in [4], more than 100 µM; in assay [5], > 100 µM (inactive); in [6] it was > 100 µM (inactive). Further, the GI50 was > 100 µM (inactive) in assay [7]; > 100 µM (inactive) in assay [8]; > 100 µM (inactive) in assay [9]; > 100 µM (inactive) in assay [10]; > 100 µM (inactive) in [11]; 5.13 µM (inactive) in assay [12]. The GI50 in [13], in [14] and in assay [15] was > 100 µM (inactive) throughout.

Turning to `CN(C)CCCCN1CCc2c(n(C)c3ccccc23)C1=O`, the GI50 in assay [1] was 72.1 µM (inactive); in assay [3], 22.4 µM (inactive); in assay [4], 27.9 µM; in assay [5], 42.6 µM (inactive); in assay [6] it was 18.7 µM (inactive); in assay [7] it was 18.5 µM (inactive). The GI50 in assay [9] was 42.1 µM (inactive); in assay [10] it was 31.3 µM (inactive); in assay [11], 25.9 µM (inactive); in [13] it was 42 µM (inactive); in assay [14] it was 25.5 µM (inactive); in assay [15], 16.5 µM (inactive).

For `COC(=O)c1ccc2c(c1)CCN2C(=O)c1cc2c(cc1Br)OCO2`, the GI50 in assay [1] was 5.19 µM (inactive); in [2], 0.989 µM (active); in [3], 0.228 µM (active); in assay [4], 1.82 µM; in [5], 8.69 µM (inactive); in [6], 0.373 µM (active). For the same compound, the GI50 was 0.151 µM (active) in assay [7]; 5.81 µM (inactive) in [8]; 0.863 µM (active) in assay [9]; 1.8 µM (inactive) in assay [10]; 0.565 µM (active) in assay [11]; 0.148 µM (active) in assay [12]. The GI50 in assay [13] is 1.81 µM (inactive); in [14], 4.11 µM (inactive); in assay [15], 0.305 µM (active).

With `COc1ccc2cc(/C=N/NC(=O)Nc3ccccc3)ccc2c1`, the GI50 in assay [2] was > 100 µM (inactive); in [3], > 100 µM (inactive); in assay [4], more than 100 µM; in assay [5], > 100 µM (inactive); in assay [6], > 100 µM (inactive); in assay [7], > 100 µM (inactive). Besides, the GI50 is > 100 µM (inactive) in assay [8]; > 10 µM (inactive) in assay [9]; > 100 µM (inactive) in assay [11]; > 100 µM (inactive) in assay [13]; > 100 µM (inactive) in [14]; > 100 µM (inactive) in assay [15].

`COc1ccc2c(c1)/C(=C/CCN(C)C)c1ccccc1S2`: the GI50 in [1] was > 100 µM (inactive); in assay [2], 44.3 µM (inactive); in assay [3], 55.8 µM (inactive); in assay [4], more than 100 µM; in assay [5] it was > 100 µM (inactive); in [6], 76.6 µM (inactive). The GI50 in [7] was 48 µM (inactive); in assay [8], > 100 µM (inactive); in assay [9] it was 35.6 µM (inactive); in assay [10], 92.9 µM (inactive); in assay [11], > 100 µM (inactive); in [13], > 100 µM (inactive). The GI50 in assay [14] and in assay [15] was > 100 µM (inactive) throughout.

As to `O=c1cc(N2CCCC2)[nH]c(=O)n1-c1cccc(C(F)(F)F)c1`, the GI50 is > 100 µM (inactive) in [1]; > 100 µM (inactive) in assay [2]; > 100 µM (inactive) in [3]; more than 100 µM in assay [4]; > 100 µM (inactive) in assay [5]; > 100 µM (inactive) in [6]. Also, the GI50 in [7], in assay [8], in assay [9], in assay [10], in assay [11] and in [12] was > 100 µM (inactive) in each case. For the same compound, the GI50 in assay [13], in assay [14] and in assay [15] was > 100 µM (inactive) each time.

In the case of `COC(=O)c1c(-c2ccccc2)c2sc3ccccc3n2c1N`, the GI50 is 50 µM (inactive) in assay [1]; 31.5 µM (inactive) in [2]; 28.6 µM (inactive) in assay [3]; 85.7 µM in assay [4]; 29.1 µM (inactive) in assay [5]; 49.7 µM (inactive) in assay [6]. Moreover, the GI50 was 81.7 µM (inactive) in [7]; 40.2 µM (inactive) in [8]; 19.4 µM (inactive) in assay [9]; 44 µM (inactive) in assay [10]; 34.1 µM (inactive) in assay [11]; 28.1 µM (inactive) in assay [12]. Besides, the GI50 in assay [13] is 33 µM (inactive); in assay [14], 20.8 µM (inactive); in assay [15], > 100 µM (inactive).

As to `C/C(=N\NC(=S)N1CCN(c2ccccn2)CC1)c1cccc(C)n1`, the GI50 is 3 µM (inactive) in assay [1]; 11.9 µM (inactive) in assay [2]; < 0.01 µM (active) in assay [3]; less than 0.01 µM in [4]; 3.81 µM (inactive) in assay [5]; < 0.01 µM (active) in [6]. In addition, the GI50 in assay [7] was 3.61 µM (inactive); in assay [8] it was 1.03 µM (active); in assay [9], 1.32 µM (inactive); in assay [10], 1.51 µM (inactive); in assay [11], 2.9 µM (inactive); in [12], 1.27 µM (inactive). In addition, the GI50 in assay [13] is 7.98 µM (inactive); in assay [14], 0.528 µM (active).

Turning to `Cc1ccc(S(=O)(=O)N/N=C/c2c(O)ccc3ccccc23)cc1`, the GI50 is 23.9 µM (inactive) in assay [1]; 21.4 µM (inactive) in assay [2]; 15.3 µM (inactive) in [3]; 24.5 µM in assay [4]; 32.9 µM (inactive) in assay [6]; 23.7 µM (inactive) in [7]. Also, the GI50 in assay [8] was 26.3 µM (inactive); in assay [9], 19.4 µM (inactive); in assay [10], 31.8 µM (inactive); in assay [11], 16.2 µM (inactive); in [12] it was 16.1 µM (inactive); in assay [13], 31.1 µM (inactive). Besides, the GI50 in [14] was 31.8 µM (inactive); in assay [15] it was 37.3 µM (inactive).

As for `O=C(O)c1nc2ccc(C(F)(F)F)cc2[nH]c1=O`, the GI50 is > 100 µM (inactive) in assay [1]; > 100 µM (inactive) in assay [2]; > 100 µM (inactive) in [3]; more than 100 µM in [4]; > 100 µM (inactive) in assay [5]; > 100 µM (inactive) in assay [6]. The GI50 in [7], in [8], in [9], in assay [10], in assay [11] and in [12] was > 100 µM (inactive) each time. Besides, the GI50 in [13], in [14] and in assay [15] was > 100 µM (inactive) each time.

`CCN(CC)c1ccc2c(c1)Oc1ccc(N(C(C)=O)c3ccccc3)cc1C21OC(=O)c2ccccc21` (stereo not given): the GI50 in assay [1] is > 100 µM (inactive); in assay [2] it was > 100 µM (inactive); in assay [3] it was 36.1 µM (inactive); in [4] it was 92.7 µM; in assay [5], > 67.3 µM (inactive); in assay [6], 32.3 µM (inactive). Further, the GI50 was 21 µM (inactive) in assay [7]; 65.9 µM (inactive) in assay [8]; > 26.1 µM (inactive) in assay [9]; > 100 µM (inactive) in assay [10]; 41.8 µM (inactive) in assay [11]; > 100 µM (inactive) in assay [12]. The GI50 is > 100 µM (inactive) in [13], 5.32 µM (inactive) in assay [14] and > 100 µM (inactive) in assay [15].

As for `CCCC(=O)Nc1cc(/C=C/C(=O)N2CC(CCl)c3c2cc(OCc2ccccc2)c2[nH]cc(C)c32)n(C)c1` (stereo not given), the GI50 in assay [1] is 0.013 µM (active); in assay [2], 0.0253 µM (active); in assay [3], 0.0272 µM (active); in [4] it was 0.106 µM; in assay [5], 0.0698 µM (active); in assay [6] it was 0.0687 µM (active). Also, the GI50 in assay [7] was 0.251 µM (active); in assay [8], 0.0147 µM (active); in [9], 0.0383 µM (active); in assay [10] it was 0.0226 µM (active); in assay [11], 0.0317 µM (active); in [12], 0.0472 µM (active). In addition, the GI50 in assay [13] is 0.186 µM (active); in [14], 0.225 µM (active); in assay [15] it was 0.105 µM (active).

With `Cc1ccc2c3c4c(ccc13)C(C)(C)OC4=C(C(C)C)C2=O`, the GI50 is 84.5 µM (inactive) in [1]; 39.8 µM (inactive) in assay [2]; 53.1 µM (inactive) in assay [3]; 32.5 µM in assay [4]; 19.5 µM (inactive) in assay [5]; 13.8 µM (inactive) in [6]. In addition, the GI50 in [7] is 59.7 µM (inactive); in assay [8], 31.8 µM (inactive); in assay [9], 17.4 µM (inactive); in [10] it was 34.7 µM (inactive); in [11], 88.3 µM (inactive); in [12], > 100 µM (inactive). The results for the GI50 in assay [13], in assay [14] and in [15] were > 100 µM (inactive), 53.5 µM (inactive) and 30.5 µM (inactive), respectively.

Take `COc1cc(Nc2nc3ccc(C(F)(F)F)cc3nc2C(=O)O)cc(OC)c1OC`: the GI50 in assay [1] is 27.4 µM (inactive); in assay [2], 18.6 µM (inactive); in assay [3] it was 18.5 µM (inactive); in [4], 18.2 µM; in [6], 27 µM (inactive); in [7], 24.3 µM (inactive). Moreover, the GI50 was 21.2 µM (inactive) in [8]; 25.2 µM (inactive) in assay [9]; 18.8 µM (inactive) in assay [10]; 27.1 µM (inactive) in assay [11]; 31.4 µM (inactive) in assay [12]; 14.4 µM (inactive) in [13]. Also, the GI50 in assay [14] was 26.8 µM (inactive); in assay [15], 20 µM (inactive).

(Values after ChEMBL document CHEMBL1201862, “PubChem BioAssay data set” (2004).)
